Assay results: patent US8252737B2, “Antimicrobial peptides and methods of use” (priority 2004, dated 2012)
In brackets after ≈: the same amount, converted by molar mass. Like-named read-outs stand apart in the source and are kept apart here. Square brackets hold non-standard residues; d marks the D form. Peptide text beside a SMILES is read from it.

Experiments:
[1] = RP-HPLC temperature profiling (hydrophobicity and self-association/dimerization parameter PA); format: physicochemical; conditions: for tR (min) 5° C.: RP-HPLC retention time at 5° C. during temperature profiling (measure of hydrophobicity); for tR (min) 80° C.: RP-HPLC retention time at 80° C. during temperature profiling; for tR (min) Max: maximal RP-HPLC retention time during temperature profiling 5-80° C.; for PA (min) association parameter: maximal retention time difference relative to control peptide C within 5-80° C.; for ΔtR (X-PSL) (min) 5° C. / ΔtR (X-PSL) (min) 80° C.: polar face substitutions, relative hydrophobicity; for ΔtR (X-PSL) (min) 5° C.: retention time difference relative to native peptide V681 (PSL) at 5° C.; for ΔtR (X-PSL) (min) 80° C.: retention time difference relative to native peptide V681 (PSL) at 80° C.
Summary of the method: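 RP-HPLC retention times recorded over temperature profiling from 5°C to 80°C, with retention relative to native V681 at each limit used as hydrophobicity. Self-association parameter PA defined as the maximal change in retention time from 5°C, after subtracting that of monomeric random-coil control peptide C.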

[2] = test system: human erythrocytes; experiment: Hemolytic activity (MHC), Protocol A, 12 hours
Summary of the method: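 Twofold peptide dilutions incubated with 1% human erythrocytes in phosphate-buffered saline at 37 °C for 12 h; hemoglobin release read spectrophotometrically at 562 nm, or at 570 nm in a repeat. Hemolytic titer taken as the highest 2-fold dilution still releasing hemoglobin, versus peptide-free erythrocytes.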

[3] = test system: gram-positive bacteria
Summary of the method: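 Microtiter dilution in LB no-salt or Mueller-Hinton medium, with BHI for Pseudomonas aeruginosa clinical isolates (final inoculum 1×10^6 CFU/ml). Plates were incubated 24 hours at 37° C. MIC was the lowest peptide concentration inhibiting growth.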

[4] = test system: gram-negative bacteria; experiment: MIC, microtiter dilution, Gram-negative bacteria (geometric mean of 6 strains); format: cell-based; conditions: for MIC (μg/ml) Gram-negative: geometric mean MIC, Table 9
Summary of the method: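 Microtiter broth dilution in LB no-salt or Mueller-Hinton broth (brain heart infusion for P. aeruginosa clinical isolates, inoculum 1×10^6 CFU/ml); overnight 37° C. cultures diluted, plates incubated 37° C. 24 h. MIC is lowest peptide concentration inhibiting growth; value is geometric mean over 6 strains.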

| Structure (SMILES) | tR (min) 5° C. [1] [min] | tR (min) 80° C. [1] [min] | tR (min) Max [1] [min] | PA (min) association parameter [1] [min] | ΔtR (X-PSL) (min) 5° C. [1] [min] | ΔtR (X-PSL) (min) 80° C. [1] [min] | MHC [2] [µg/mL] | MIC (μg/ml) Gram-positive [3] [µg/mL] | MIC (μg/ml) Gram-negative [4] [µg/mL] | fold improvement on the average MIC compared to V681 ([4]; gram-negative bacteria, geometric mean comparison, Table 7) | MHC ([2]; minimal hemolytic concentration on human red blood cells (hRBC), Table 9) [µg/mL] | geometric mean MIC against gram-positive bacteria ([3]; Table 8) [µg/mL] | MIC (μg/ml) Gram-positive ([3]; geometric mean MIC, Table 9) [µg/mL] | fold improvement in antimicrobial activity compared to V681 ([3]; gram-positive bacteria, geometric mean MIC, Table 8) |
| --- | --- | --- | --- | --- | --- | --- | --- | --- | --- | --- | --- | --- | --- | --- |
| CC[C@H](C)[C@H](NC(=O)[C@H](C)NC(=O)[C@H](CCCCN)NC(=O)[C@H](CC(C)C)NC(=O)[C@H](C)NC(=O)[C@@H](NC(=O)[C@H](Cc1c[nH]cn1)NC(=O)[C@H](CC(C)C)NC(=O)[C@@H](NC(=O)[C@@H](NC(=O)[C@H](CCCCN)NC(=O)[C@@H](NC(=O)[C@H](C)NC(=O)[C@@H](C)NC(=O)[C@H](CCCCN)NC(=O)[C@H](Cc1ccccc1)NC(=O)[C@@H](NC(=O)[C@H](CCCCN)NC(=O)[C@H](CC(C)C)NC(=O)[C@H](Cc1ccccc1)NC(=O)[C@H](CO)NC(=O)[C@H](CCCCN)NC(=O)[C@H](Cc1c[nH]c2ccccc12)NC(=O)[C@H](CCCCN)NC(C)=O)[C@@H](C)O)C(C)C)[C@@H](C)O)C(C)C)[C@@H](C)O)C(=O)N[C@@H](CO)C(=O)N[C@@H](CO)C(N)=O [PAD] (Ac-KWKSFLKTFK[dA]AVKTVLHTALKAISS-NH2) | 45.19 | 42.57 | 46.36 | 2.82 | -2.91 | -3.26 | 15.6 | 3.8 (≈ 1.29 µM) | 4.3 (≈ 1.46 µM) |  |  |  |  |  |
| CC[C@H](C)[C@H](NC(=O)[C@H](C)NC(=O)[C@H](CCCCN)NC(=O)[C@H](CC(C)C)NC(=O)[C@H](C)NC(=O)[C@@H](NC(=O)[C@H](Cc1c[nH]cn1)NC(=O)[C@H](CC(C)C)NC(=O)[C@@H](NC(=O)[C@@H](NC(=O)[C@H](CCCCN)NC(=O)[C@@H](NC(=O)[C@H](C)NC(=O)[C@@H](CC(C)C)NC(=O)[C@H](CCCCN)NC(=O)[C@H](Cc1ccccc1)NC(=O)[C@@H](NC(=O)[C@H](CCCCN)NC(=O)[C@H](CC(C)C)NC(=O)[C@H](Cc1ccccc1)NC(=O)[C@H](CO)NC(=O)[C@H](CCCCN)NC(=O)[C@H](Cc1c[nH]c2ccccc12)NC(=O)[C@H](CCCCN)NC(C)=O)[C@@H](C)O)C(C)C)[C@@H](C)O)C(C)C)[C@@H](C)O)C(=O)N[C@@H](CO)C(=O)N[C@@H](CO)C(N)=O [PLD] (Ac-KWKSFLKTFK[dL]AVKTVLHTALKAISS-NH2) | 44.73 | 42.14 | 45.85 | 2.82 | -3.37 | -3.69 | 31.2 | 4.7 (≈ 1.57 µM) | 5.0 (≈ 1.67 µM) |  |  |  |  |  |
| CC[C@H](C)[C@H](NC(=O)[C@H](C)NC(=O)[C@H](CCCCN)NC(=O)[C@H](CC(C)C)NC(=O)[C@H](C)NC(=O)[C@@H](NC(=O)[C@H](Cc1c[nH]cn1)NC(=O)[C@H](CC(C)C)NC(=O)[C@@H](NC(=O)[C@@H](NC(=O)[C@H](CCCCN)NC(=O)[C@@H](NC(=O)[C@H](C)NC(=O)[C@@H](CCCCN)NC(=O)[C@H](CCCCN)NC(=O)[C@H](Cc1ccccc1)NC(=O)[C@@H](NC(=O)[C@H](CCCCN)NC(=O)[C@H](CC(C)C)NC(=O)[C@H](Cc1ccccc1)NC(=O)[C@H](CO)NC(=O)[C@H](CCCCN)NC(=O)[C@H](Cc1c[nH]c2ccccc12)NC(=O)[C@H](CCCCN)NC(C)=O)[C@@H](C)O)C(C)C)[C@@H](C)O)C(C)C)[C@@H](C)O)C(=O)N[C@@H](CO)C(=O)N[C@@H](CO)C(N)=O [PKD] (Ac-KWKSFLKTFK[dK]AVKTVLHTALKAISS-NH2) | 42.20 | 39.29 | 42.87 | 2.23 | -5.90 | -6.54 | 31.2 | 2.8 (≈ 0.932 µM) | 2.6 (≈ 0.866 µM) | 3.4 |  |  |  |  |
| CC[C@H](C)[C@H](NC(=O)[C@H](C)NC(=O)[C@H](CCCCN)NC(=O)[C@H](CC(C)C)NC(=O)[C@H](C)NC(=O)[C@@H](NC(=O)[C@H](Cc1c[nH]cn1)NC(=O)[C@H](CC(C)C)NC(=O)[C@@H](NC(=O)[C@@H](NC(=O)[C@H](CCCCN)NC(=O)[C@@H](NC(=O)[C@H](C)NC(=O)[C@@H](CO)NC(=O)[C@H](CCCCN)NC(=O)[C@H](Cc1ccccc1)NC(=O)[C@@H](NC(=O)[C@H](CCCCN)NC(=O)[C@H](CC(C)C)NC(=O)[C@H](Cc1ccccc1)NC(=O)[C@H](CO)NC(=O)[C@H](CCCCN)NC(=O)[C@H](Cc1c[nH]c2ccccc12)NC(=O)[C@H](CCCCN)NC(C)=O)[C@@H](C)O)C(C)C)[C@@H](C)O)C(C)C)[C@@H](C)O)C(=O)N[C@@H](CO)C(=O)N[C@@H](CO)C(N)=O [PSD] | 45.47 | 42.59 | 46.60 | 2.73 | -2.63 | -3.24 |  |  | 2.9 (≈ 0.979 µM) |  | 15.6 | 2.3 | 2.3 (≈ 0.777 µM) | 2.7 |
